Measured values: patent US8299046B2, “Synthetic triterpenoids and tricyclic-bis-enones for use in stimulating bone and cartilage growth” (Trustees of Dartmouth College, priority 2006, dated 2012)

Columns and labels:
[1] = system: neonatal murine calvarial bones; test: Neonatal murine calvarial bone formation assay; format: cell-based, ICR Swiss mice; details: for alkaline phosphatase in the calvarial culture media: 4 and 7 days (FIGS. 2, 5, 8, 11); for cartilage formation: calvarial cultures, 7 days (FIGS. 3, 6, 9, 12); for new bone formation: calvarial organ culture, 7 days, 40, 200, 1000 nM (FIGS. 1, 4, 10)
Method: Neonatal murine calvarial bone formation assay. The technique for studying organ cultures of neonatal murine calvarial bones has been described in detail previously (Traianedes et al., 1999, Mundy et al., 1999). The bones were removed from the calvaria of 4-5 day old ICR Swiss mice, and then cultured in BGJ medium with 0.1% BSA for 7 Days using 4 calvarial bones per group triterpenoids in differing amounts were added for 7 days. Alkaline phosphatase was determined at 4 and 7 days and expressed as arbitrary units of alkaline phosphatase activity. At the end of the experiment the media was saved and assayed for the presence of alkaline phosphatase and the calvaria bones were then fixed overnight in 10% formalin, decalcified in 14% EDTA overnight and were then embedded in paraffin wax. Sections were cut, using a standard microtome, along the midline suture to reveal the sagittal suture and the region posterior to this suture. Four micrometer sections were taken initially and at two sequential […] depths. Sections were placed on coated glass slides (Superfrost plus, Fisher Scientific, Pittsburgh, Pa.) and stained with hematoxylin and eosin. The effects on bone formation were evaluated by morphologic assessment.
Imaging. Digital images across sections of the neonatal murine calvaria were taken from each group. Histomorphometric analysis was performed on these calvarial images using the Osteomeasure System (Osteometrics Inc., Atlanta, Ga.). The total and new bone area (expressed as mm^2×10^−3) was determined on all images across the calvarial section.

[2] = system: SZP synthesis in superficial zone articular chondrocytes; test: Bovine calf stifle joint SZP assay; format: cell-based; details: for SZP synthesis at lower concentrations: 0.01 to 1 nM; for SZP synthesis at higher concentrations / SZP synthesis at higher concentrations with concurrent TGF-β1: 100-1000 nM; for SZP synthesis at higher concentrations: Day 3 culture media; for SZP synthesis at higher concentrations with concurrent TGF-β1: concurrent TGF-β1 (4 pM)
Method: Bovine calf stifle joint SZP assay. Bovine calf stifle joints were dissected under aseptic conditions. The superficial zone of articular cartilage of femoral condyles (approximately 100 μm thickness) was harvested using a dermatome. The cartilage slices were digested with 0.2% collagenase P in culture medium. Isolated chondrocytes were plated in monolayer at a density of 1×10^5 cells/well (approximately 2.5×10^4 cells/cm^2) in 12-well culture plates and incubated at 37° C. in a moist atmosphere of 5% carbon dioxide and 95% air. Chondrocytes were cultured in D-MEM/F-12 containing 10% fetal bovine serum over night, and then the media were changed in serum-free D-MEM/F-12 supplemented with ITSL (insulin, transferrin, selenious acid, and linoleic acid). Both media contain 100 U/ml penicillin, 100 μg/ml streptomycin, 50 μg/ml ascorbate-2-phosphate, and 0.1% bovine serum albumin. After changing the media with serum into the serum-free chemically defined media, various concentration of synthetic triterpenoids were added into the cell culture. As most of SZP is secreted into the culture medium, supernatants were harvested as samples and the SZP synthesis was analyzed by SDS-PAGE and Western blotting using a monoclonal antibody S6.79, obtained from Rush Medical College, Chicago, Ill. SZP accumulation into the culture medium was also quantified by ELISA using purified SZP as standard. The accumulation of SZP into the culture media increased in a time-dependent manner (Day 1<Day 2<Day 3). Therefore the culture of media of Day 3 was used for all the studies.

heme oxygenase-1 [3] = details: Liby et al., 2005; cited from earlier work
RAW cells = test: Inhibition of NO production in RAW cells; format: cell-based
[4] = system: RMPI 8226 human myeloma cells; test: Proliferation of RMPI 8226 myeloma cells; format: cell-based
heme oxygenase-1 [5] = test: In vivo assay of heme oxygenase-1 induction
[6] = system: heme oxygenase-1 in U937 cells; test: Heme oxygenase-1 induction in U937 cells; format: cell-based, human
[7] = system: CD11b expression in U937 cells; test: CD11b expression in U937 cells; format: cell-based, human
iNOS in RAW cells = iNOS in RAW cells stimulated with interferon-γ; format: cell-based
[8] = system: U937 human leukemia cells; test: Proliferation of U937 leukemia cells; format: cell-based
[9] = system: MCF-7 breast cancer cell lines; details: Honda et al., 2003; cited from earlier work

Molecule: COC(=O)[C@]12CCC(C)(C)C[C@H]1[C@H]1C(=O)C=C3[C@@]4(C)C=C(C#N)C(=O)C(C)(C)[C@@H]4CC[C@@]3(C)[C@]1(C)CC2 [TP-155]
- alkaline phosphatase in the calvarial culture media [1]: increases
- cartilage formation [1]: Some evidence of cartilage formation was seen in these cultures (FIG. 3) however this was not significant
- new bone formation [1]: Significant increase
- SZP synthesis at lower concentrations [2]: up-regulated SZP synthesis
- SZP synthesis at higher concentrations [2]: down-regulated SZP synthesis in a dose-dependent manner
- SZP synthesis at higher concentrations with concurrent TGF-β1 [2]: the same trend

Molecule: CC1(C)CC[C@]2(C(=O)n3ccnc3)CC[C@]3(C)[C@H](C(=O)C=C4[C@@]5(C)C=C(C#N)C(=O)C(C)(C)[C@@H]5CC[C@]43C)[C@@H]2C1 [TP-235]
- alkaline phosphatase in the calvarial culture media [1]: no convincing change
- new bone formation at 40 nM ([1]; at 40 nM, 7 days (FIG. 7)): Significant increase
- cartilage formation [1]: No evidence of cartilage formation
- potency in heme oxygenase-1 induction assay (literature) (heme oxygenase-1 [3]): highest potency amongst semi-synthetic triterpenoids
- SZP synthesis at lower concentrations [2]: no obvious effects
- SZP synthesis at higher concentrations [2]: down-regulated SZP synthesis in a dose-dependent manner
- SZP synthesis at higher concentrations with concurrent TGF-β1 [2]: the same trend

Molecule: TGF-β1: Recombinant human TGF-β1
- SZP synthesis (TGF-β1) ([2]; 0.4-120 pM): up-regulate SZP synthesis in a dose-dependent manner

Molecule: CC1(C)CC[C@]2(C(=O)O)CC[C@]3(C)[C@H](C(=O)C=C4[C@@]5(C)C=C(C#N)C(=O)C(C)(C)[C@@H]5CC[C@]43C)[C@@H]2C1 [TP-151, 2-cyano-3,12-dioxooleane-1,9(11)-dien-28-oic acid]
- alkaline phosphatase in the calvarial culture media [1]: increases
- cartilage formation [1]: No evidence of cartilage formation
- new bone formation [1]: Significant increase
- SZP synthesis at lower concentrations [2]: up-regulated SZP synthesis
- SZP synthesis at higher concentrations [2]: down-regulated SZP synthesis in a dose-dependent manner
- SZP synthesis at higher concentrations with concurrent TGF-β1 [2]: the same trend

Molecule: CC1(C)C(=O)C(C#N)=CC2(C)C3=CC(=O)C(C#N)=C(C#C[Si](C)(C)C)C3CCC12 (racemic) [TBE-31]
- potency for inhibition of NO production in RAW cells (RAW cells): extremely potent at one nanomolar concentrations
- potency for NO inhibition in RAW cells compared with CDDO and TP-225 (RAW cells; comparison): much higher than CDDO and equal to TP-225
- proliferation of RMPI 8226 human myeloma cells [4]: inhibits proliferation
- potency in heme oxygenase-1 induction compared with CDDO and CDDO-Im (heme oxygenase-1 [5]; comparison): much higher than CDDO and equal to CDDO-Im
- in vivo heme oxygenase-1 induction (heme oxygenase-1 [5]; oral): orally active
- induction of heme oxygenase-1 in U937 cells [6]: potent inducer
- CD11b expression in U937 cells [7]: induces CD11b expression
- potency for CD11b induction compared with CDDO and CDDO-Im ([7]; comparison): much higher than CDDO and CDDO-Im
- iNOS in RAW cells (iNOS in RAW cells): inhibits iNOS
- proliferation of U937 human leukemia cells [8]: inhibits proliferation

Molecule: CCNC(=O)[C@]12CCC(C)(C)C[C@H]1[C@H]1C(=O)C=C3[C@@]4(C)C=C(C#N)C(=O)C(C)(C)[C@@H]4CC[C@@]3(C)[C@]1(C)CC2 [TP-319]
- alkaline phosphatase in the calvarial culture media [1]: dose responsive increases
- cartilage formation [1]: clear evidence increases in cartilage formation
- new bone formation [1]: Some increases
- SZP synthesis at lower concentrations [2]: no obvious effects
- SZP synthesis at higher concentrations [2]: down-regulated SZP synthesis in a dose-dependent manner
- SZP synthesis at higher concentrations with concurrent TGF-β1 [2]: the same trend

Molecule: CC1(C)C(=O)C(C#N)=C[C@]2(C)C3=CC(=O)C(C#N)=C[C@]3(C)CC[C@@H]12 [(−)-TBE-9]
- activity against MCF-7 cell lines [9]: active
